According to patent publication US20240315993A1, “ANTIPARASITIC COMPOUNDS” (Intervet Inc., priority 2021, published 2024):
Where two headings read alike, the source gives them in different places.

Key:
[1] = system: Mobile stages of sea lice (pre-adults, adults of Lepeophtheirus salmonis); assay: Adult sea lice contact assay; conditions: read-out: EC50 (sea lice inhibition, dead+damaged)
Method: Mobile stages of sea lice (i.e., pre-adults, adults of Lepeophtheirus salmonis) were exposed to seawater spiked with declining concentrations of a test compound (dissolved in a PEG sea-water mixture). Sea lice inhibition (% of dead+damaged sea lice) was assessed after approximately 1 and 24 hours of continuous exposure in comparison to a negative (solvent) control group.

Dermacenter variabilis = assay: Cattle - efficacy against multi-host ticks (Dermacenter variabilis); format: in vivo; conditions: for effective in treating existing tick infestations: 5 mg/kg, both administration routes (topical, subcutaneous)
Method: (§1) Cattle were treated subcutaneously or topically (pour-on) at a dose of 5 mg/kg bodyweight of a test compound (Day 0). As subcutaneous formulation NMP 60%/PEG300 40% was used, and as pour-on formulation DMA 92%/DEET 8% was used. Cattle of the negative control group received only the formulation excipients of both formulations (SC, pour-on).
(§2) Cattle were locally infested with 30 to 40 unfed adult ticks each of Rhipicephalus appendiculatus and Dermacenter variabilis (for both species sex ratio 1:1), by placing the ticks in an ear sleeve (R. appendiculatus) or a stockinet patch attached to the body side (D. variabilis) once before treatment, and at different time points after treatment. Free (i.e., non-attached ticks) were removed from ear sleeves/stockinet patches two days after each infestation and were excluded from the efficacy calculation.
(§3) Compounds with efficacy ≥80 percent were found active.

Rhipicephalus microplus = assay: Cattle - efficacy against one-host tick; format: in vivo
Procedure, shortened: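 Cattle infested whole-body with up to 3000 R. microplus larvae two or three times weekly around Day 0, then given 1 mg/kg subcutaneously or topically (spray or pour-on); controls got excipients only. Engorged females dropping were counted daily; efficacy by ADEQ per WAAVP guidelines, onset/duration as first/last day ≥80%.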

[2] = system: Ctenocephalides felis fleas; assay: Dog - efficacy against fleas; format: in vivo; conditions: for efficacy against fleas in dogs (conclusion): 10 mg/kg; for therapeutic efficacy against fleas (active = efficacy ≥80 percent): D2
Method: (§4) Beagle dogs were infested (whole body) with 80 Ctenocephalides felis fleas and 50 Rhipicephalus sanguineus or Haemaphysalis elliptica ticks (sex ratio 1:1) two days before the treatment day (Day 0), and repeatedly thereafter. Dogs of treatment groups were treated with 10 mg/kg bodyweight of a test compound orally (compound weighed in gelatin capsule), topically (spot-on, DMA 92%/DEET 8%) or subcutaneously (PEG 200 90%/water for injection 10%). Dogs of the negative control group received only an empty gelatin capsule orally and the spot-on formulation excipients topically.
as §3

Lepeophtheirus salmonis = assay: Salmon - in vivo efficacy against sea lice using gavage administration; conditions: po, 168 h
[3] = system: Rhipicephalus sanguineus or Haemaphysalis elliptica ticks; assay: Dog - efficacy against ticks; format: in vivo; conditions: for efficacy against ticks in dogs (conclusion): 10 mg/kg; for therapeutic efficacy against ticks (active = efficacy ≥80 percent): D2; for active against ticks up to (efficacy ≥80 percent): repeated infestations
Method: as §4, §3

[4] = system: bed bugs (Cimex lectularius); assay: Guinea pig - efficacy against bed bug; format: in vivo
Procedure, shortened: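 Guinea pigs given 5 mg/kg test compound orally (gavage) or s.c. in 10% DMF/emulsifier plus 90% water for injection, with local co-infestations of Ornithodoros moubata juveniles and Cimex lectularius at several post-treatment times. Engorged parasites scored dead/damaged about 24 h after collection; % inhibition versus pretreatment baseline by modified Schneider-Orelli formula.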

[5] = system: Copepodids (juvenile sea lice stage of Lepeophtheirus salmonis); assay: Juvenile sea lice contact assay; conditions: Lepeophtheirus salmonis, read-out: Sea lice inhibition (% of dead+damaged copepodids)
Method: Copepodids (juvenile sea lice stage of Lepeophtheirus salmonis) were exposed to seawater spiked with declining concentrations of a test compound (dissolved in a DMSO sea-water mixture). Sea lice inhibition (% of dead+damaged copepodids) was assessed after approximately 24 hours of continuous exposure. The vitality of used parasites was confirmed in a negative (solvent) control group.

[6] = system: Rhipicephalus appendiculatus; assay: Cattle - efficacy against multi-host ticks (Rhipicephalus appendiculatus); format: in vivo; conditions: for effective in treating existing tick infestations: 5 mg/kg, both administration routes (topical, subcutaneous)
Method: as §1, §2, §3

[7] = 5 mg/kg subcutaneous, re-infested after 7 days
[8] = 5 mg/kg subcutaneous, re-infested after 14 days
[9] = 5 mg/kg subcutaneous, re-infested after 21 days
[10] = 5 mg/kg subcutaneous, re-infested after 28 days
[11] = 5 mg/kg subcutaneous, therapeutic, Day 2
[12] = 5 mg/kg topical pour-on, re-infested after 7 days
[13] = 5 mg/kg topical pour-on, re-infested after 14 days
[14] = 5 mg/kg topical pour-on, re-infested after 21 days
[15] = 5 mg/kg topical pour-on, therapeutic, Day 2
[16] = 1 mg/kg topical (Compound 4: spray solution; others: DMA 92%/DEET 8% pour-on)
[17] = 5 mg/kg subcutaneous, after 7 days
[18] = 5 mg/kg subcutaneous, after 10 days
[19] = 5 mg/kg subcutaneous, re-infested after 35 days
[20] = 5 mg/kg topical pour-on, re-infested after 28 days
[21] = 5 mg/kg topical pour-on, re-infested after 35 days
[22] = 1 mg/kg pour on in Imwitor 988+Miglyol 840

For `O=C(Nc1ccc(F)cc1F)c1cc(NC(=O)[C@H]2[C@H](c3ccc(F)c(Cl)c3)C2(Cl)Cl)ccc1Cl` [Compound 197], the EC50 [1] was 10 to 25 nM, the “efficacy ≥80 percent against Dermacenter variabilis” value (Dermacenter variabilis; [7]) was “prophylactic efficacy” and the “efficacy ≥80 percent against Dermacenter variabilis” value (Dermacenter variabilis; [8]) was “prophylactic efficacy”. For the same compound, the “efficacy ≥80 percent against Dermacenter variabilis” value (Dermacenter variabilis; [9]) was “prophylactic efficacy”, the “efficacy ≥80 percent against Dermacenter variabilis” value (Dermacenter variabilis; [10]) was “prophylactic efficacy” and the “efficacy ≥80 percent against Dermacenter variabilis” value (Dermacenter variabilis; [11]) was “therapeutic efficacy”. The “efficacy ≥80 percent against Dermacenter variabilis” value (Dermacenter variabilis; [12]) was “prophylactic efficacy”, the “efficacy ≥80 percent against Dermacenter variabilis” value (Dermacenter variabilis; [13]) was “prophylactic efficacy” and the “efficacy ≥80 percent against Dermacenter variabilis” value (Dermacenter variabilis; [14]) was “prophylactic efficacy”. For the same compound, the “efficacy ≥80 percent against Dermacenter variabilis” value (Dermacenter variabilis; [15]) was “therapeutic efficacy”, the “effective in treating existing tick infestations” value (Dermacenter variabilis) was 100% and the “duration of efficacy (last Day with efficacy ≥80 percent)” value (Rhipicephalus microplus; 1 mg/kg subcutaneous) was at least 120 days. The “onset of efficacy (first Day with efficacy ≥80 percent)” value (Rhipicephalus microplus; 1 mg/kg subcutaneous) was 3 days, the “duration of efficacy (last Day with efficacy ≥80 percent)” value (Rhipicephalus microplus; [16]) was 47 days and the “onset of efficacy (first Day with efficacy ≥80 percent)” value (Rhipicephalus microplus; [16]) was 2 days. The “efficacy against fleas in dogs (conclusion)” value [2] was “therapeutic efficacy”, the “therapeutic efficacy against fleas (active = efficacy ≥80 percent)” value ([2]; 10 mg/kg oral) was “active” and the “therapeutic efficacy against fleas (active = efficacy ≥80 percent)” value ([2]; 10 mg/kg topical spot-on) was “active”. For the same compound, the inhibition in vivo at 5 mg/kg (Lepeophtheirus salmonis; read-out: therapeutic efficacy against (pre-)adult sea lice (% reduction vs control)) was 80%, the “efficacy against ticks in dogs (conclusion)” value [3] was “therapeutic efficacy” and the “therapeutic efficacy against ticks (active = efficacy ≥80 percent)” value ([3]; 10 mg/kg oral) was “active”. The “active against ticks up to (efficacy ≥80 percent)” value ([3]; 10 mg/kg topical spot-on) was 70/72, the “activity against bed bugs (≥80% inhibition, killed+damaged)” value ([4]; 5 mg/kg oral, Day 0) was “immediate activity” and the “activity against bed bugs (≥80% inhibition, killed+damaged)” value ([4]; 5 mg/kg oral, after 7 days) was “activity”. For the same compound, the “activity against bed bugs (≥80% inhibition, killed+damaged)” value ([4]; 5 mg/kg subcutaneous, Day 0) was “immediate activity”, the “activity against bed bugs (≥80% inhibition, killed+damaged)” value [4, 17] was “activity” and the “activity against bed bugs (≥80% inhibition, killed+damaged)” value [4, 18] was “activity”. The inhibition at 0.001 µM ([5]; 24 h) was 100%, the “efficacy ≥80 percent against Rhipicephalus appendiculatus” value [6, 7] was “prophylactic efficacy” and the “efficacy ≥80 percent against Rhipicephalus appendiculatus” value [6, 8] was “prophylactic efficacy”. For the same compound, the “efficacy ≥80 percent against Rhipicephalus appendiculatus” value [6, 9] was “prophylactic efficacy”, the “efficacy ≥80 percent against Rhipicephalus appendiculatus” value [6, 10] was “prophylactic efficacy” and the “efficacy ≥80 percent against Rhipicephalus appendiculatus” value [6, 19] was “prophylactic efficacy”. The “efficacy ≥80 percent against Rhipicephalus appendiculatus” value [6, 11] was “therapeutic efficacy”, the “efficacy ≥80 percent against Rhipicephalus appendiculatus” value [6, 12] was “prophylactic efficacy” and the “efficacy ≥80 percent against Rhipicephalus appendiculatus” value [6, 13] was “prophylactic efficacy”. The “efficacy ≥80 percent against Rhipicephalus appendiculatus” value [6, 14] was “prophylactic efficacy”, the “efficacy ≥80 percent against Rhipicephalus appendiculatus” value [6, 20] was “prophylactic efficacy” and the “efficacy ≥80 percent against Rhipicephalus appendiculatus” value [6, 21] was “prophylactic efficacy”. The “efficacy ≥80 percent against Rhipicephalus appendiculatus” value [6, 15] was “therapeutic efficacy” and the “effective in treating existing tick infestations” value [6] was 100%.

In the case of `O=C(Nc1ncc(F)cc1F)c1cc(NC(=O)[C@H]2[C@H](c3cc(Cl)cc(Cl)c3)C2(Cl)Cl)ccc1Cl` [Compound 453], the EC50 ([1]; pre-adults/adults, assessed after ~1 and 24 h) is reported as at most 10 nM, the “efficacy ≥80 percent against Dermacenter variabilis” value (Dermacenter variabilis; [7]) is reported as “prophylactic efficacy” and the “efficacy ≥80 percent against Dermacenter variabilis” value (Dermacenter variabilis; [8]) is reported as “prophylactic efficacy”. The “efficacy ≥80 percent against Dermacenter variabilis” value (Dermacenter variabilis; [9]) was “prophylactic efficacy”, the “efficacy ≥80 percent against Dermacenter variabilis” value (Dermacenter variabilis; [10]) was “prophylactic efficacy” and the “efficacy ≥80 percent against Dermacenter variabilis” value (Dermacenter variabilis; [19]) was “prophylactic efficacy”. For the same compound, the “efficacy ≥80 percent against Dermacenter variabilis” value (Dermacenter variabilis; [11]) was “therapeutic efficacy”, the “efficacy ≥80 percent against Dermacenter variabilis” value (Dermacenter variabilis; [12]) was “prophylactic efficacy” and the “efficacy ≥80 percent against Dermacenter variabilis” value (Dermacenter variabilis; [13]) was “prophylactic efficacy”. For the same compound, the “efficacy ≥80 percent against Dermacenter variabilis” value (Dermacenter variabilis; [14]) was “prophylactic efficacy”, the “efficacy ≥80 percent against Dermacenter variabilis” value (Dermacenter variabilis; [20]) was “prophylactic efficacy” and the “efficacy ≥80 percent against Dermacenter variabilis” value (Dermacenter variabilis; [21]) was “prophylactic efficacy”. For the same compound, the “efficacy ≥80 percent against Dermacenter variabilis” value (Dermacenter variabilis; [15]) was “therapeutic efficacy”, the “effective in treating existing tick infestations” value (Dermacenter variabilis) was 100% and the “duration of efficacy (last Day with efficacy ≥80 percent)” value (Rhipicephalus microplus; [22]) was 77 days. For the same compound, the “onset of efficacy (first Day with efficacy ≥80 percent)” value (Rhipicephalus microplus; [22]) was 1 days, the “duration of efficacy (last Day with efficacy ≥80 percent)” value (Rhipicephalus microplus; 1 mg/kg pour on in Miglyol 840) was 84 days and the “onset of efficacy (first Day with efficacy ≥80 percent)” value (Rhipicephalus microplus; 1 mg/kg pour on in Miglyol 840) was 2 days. The “duration of efficacy (last Day with efficacy ≥80 percent)” value (Rhipicephalus microplus; 1 mg/kg subcutaneous) was 82 days, the “onset of efficacy (first Day with efficacy ≥80 percent)” value (Rhipicephalus microplus; 1 mg/kg subcutaneous) was 3 days and the “duration of efficacy (last Day with efficacy ≥80 percent)” value (Rhipicephalus microplus; [16]) was 63 days. For the same compound, the “onset of efficacy (first Day with efficacy ≥80 percent)” value (Rhipicephalus microplus; [16]) was 3 days, the “efficacy against fleas in dogs (conclusion)” value [2] was “therapeutic efficacy” and the “therapeutic efficacy against fleas (active = efficacy ≥80 percent)” value ([2]; 10 mg/kg oral) was “active”. The “therapeutic efficacy against fleas (active = efficacy ≥80 percent)” value ([2]; 10 mg/kg topical spot-on) was “active”, the inhibition in vivo at 5 mg/kg (Lepeophtheirus salmonis; read-out: therapeutic efficacy against (pre-)adult sea lice (% reduction vs control), salmon, 5 mg/kg once by gavage, day -28 infestation, counted day 7) was 100% and the “efficacy against ticks in dogs (conclusion)” value [3] was “therapeutic efficacy”. For the same compound, the “therapeutic efficacy against ticks (active = efficacy ≥80 percent)” value ([3]; 10 mg/kg oral) was “active”, the “therapeutic efficacy against ticks (active = efficacy ≥80 percent)” value ([3]; 10 mg/kg topical spot-on) was “active” and the “active against ticks up to (efficacy ≥80 percent)” value ([3]; 10 mg/kg topical spot-on) was 70/72. The “activity against bed bugs (≥80% inhibition, killed+damaged)” value ([4]; 5 mg/kg oral, Day 0) was “immediate activity”, the “activity against bed bugs (≥80% inhibition, killed+damaged)” value ([4]; 5 mg/kg oral, after 7 days) was “activity” and the “activity against bed bugs (≥80% inhibition, killed+damaged)” value ([4]; 5 mg/kg oral, after 10 days) was “activity”. For the same compound, the “activity against bed bugs (≥80% inhibition, killed+damaged)” value ([4]; 5 mg/kg subcutaneous, Day 0) was “immediate activity”, the “activity against bed bugs (≥80% inhibition, killed+damaged)” value [4, 17] was “activity” and the “activity against bed bugs (≥80% inhibition, killed+damaged)” value [4, 18] was “activity”. The “effective to control bed bugs” value ([4]; 5 mg/kg, at least until Day 10, both administration routes (oral, subcutaneous)) was 100%, the inhibition at 0.001 µM ([5]; 1 nM in seawater, ~24 h) was 100% and the “efficacy ≥80 percent against Rhipicephalus appendiculatus” value [6, 7] was “prophylactic efficacy”. The “efficacy ≥80 percent against Rhipicephalus appendiculatus” value [6, 8] was “prophylactic efficacy”, the “efficacy ≥80 percent against Rhipicephalus appendiculatus” value [6, 9] was “prophylactic efficacy” and the “efficacy ≥80 percent against Rhipicephalus appendiculatus” value [6, 10] was “prophylactic efficacy”. The “efficacy ≥80 percent against Rhipicephalus appendiculatus” value [6, 19] was “prophylactic efficacy”, the “efficacy ≥80 percent against Rhipicephalus appendiculatus” value [6, 11] was “therapeutic efficacy” and the “efficacy ≥80 percent against Rhipicephalus appendiculatus” value [6, 12] was “prophylactic efficacy”. For the same compound, the “efficacy ≥80 percent against Rhipicephalus appendiculatus” value [6, 13] was “prophylactic efficacy”, the “efficacy ≥80 percent against Rhipicephalus appendiculatus” value [6, 14] was “prophylactic efficacy” and the “efficacy ≥80 percent against Rhipicephalus appendiculatus” value [6, 20] was “prophylactic efficacy”. For the same compound, the “efficacy ≥80 percent against Rhipicephalus appendiculatus” value [6, 21] was “prophylactic efficacy”, the “efficacy ≥80 percent against Rhipicephalus appendiculatus” value [6, 15] was “therapeutic efficacy” and the “effective in treating existing tick infestations” value [6] was 100%.
